The nature of data set [1]: Solubility in water at pH 7.4. The class given is physicochemical. The note with it: aqueous buffer, pH 7.4, r.t. The procedure: The compounds have been assessed in respect of their solubility in water, at a pH of 7.4 at room temeprature. In general the solubility of compounds of formula (I) is in a range of at least 50 μg/mL solvent, more preferably of at least 100 μg/mL solvent.

Data set [2] concerns the target JNK3 (Homo sapiens, UniProt P53779). Description: JNK3 in vitro assay (c-jun phosphorylation, 33P incorporation, SPA). Type of data set: biochemical. The following applies: recombinant pre-activated GST-JNK3, biotinylated GST-c-Jun, 2 μM 33γ-ATP. How it is done: The phosphorylation of c-jun by JNK2 or JNK3 may be followed by monitoring the incorporation of ^33P into c-jun following the protocol below. The inhibitory activity of the compounds according to formula I, in respect of c-jun phosphorylation through JNK, is determined by calculating the phosphorylation activity of a JNK in the presence or absence of the test compounds according to formula I.
JNK3 and/or -2 assays are performed in 96 well MTT plates: incubation of 0.5 μg of recombinant, pre-activated GST-JNK3 or GST-JNK2 with 1 μg of recombinant, biotinylated GST-c-Jun and 2 μM ^33γ-ATP (2 nCi/μl), in the presence or absence of compounds according to formula I and in a reaction volume of 50 μl containing 50 mM Tris-HCl, pH 8.0; 10 mM MgCl2; 1 mM Dithiothreitol, and 100 μM NaVO4. The incubation is performed for 120 min. at R.T and stopped upon addition of 200 μl of a solution containing 250 μg of Streptavidine-coated SPA beads (Amersham, Inc.)*, 5 mM EDTA, 0.1% Triton X-100 and 50 μM ATP, in phosphate saline buffer. After incubation for 60 minutes at RT, beads are sedimented by centrifugation at 1500×g for 5 minutes, resuspended in 200 μl of PBS containing 5 mM EDTA, 0.1% Triton X-100 and 50 μM ATP and the radioactivity measured in a scintillation β counter, following sedimentation of the beads as described above. By replacing biotinylated GST-c Jun with biotinylated GST-1ATF2 or biotinylated myelin basic protein, this assay may also be used to measure inhibition of pre-activated p38 and ERK MAP Kinases, respectively.

In brackets after ≈: the same amount, converted by molar mass.

We go through 3 compounds from US20040077632A1, “Pharmaceutically active hydrophilic sulfonamide derivatives as inhibitors of protein junkinases” (priority 2000, published 2004).

A word on the solubility: it is how much of the substance goes into solution per volume. Low readings indicate little dissolved substance, high ones much dissolved substance. The term IC50 denotes the concentration that gives 50% inhibition.

Sequence of JNK3 (P53779 whole entry): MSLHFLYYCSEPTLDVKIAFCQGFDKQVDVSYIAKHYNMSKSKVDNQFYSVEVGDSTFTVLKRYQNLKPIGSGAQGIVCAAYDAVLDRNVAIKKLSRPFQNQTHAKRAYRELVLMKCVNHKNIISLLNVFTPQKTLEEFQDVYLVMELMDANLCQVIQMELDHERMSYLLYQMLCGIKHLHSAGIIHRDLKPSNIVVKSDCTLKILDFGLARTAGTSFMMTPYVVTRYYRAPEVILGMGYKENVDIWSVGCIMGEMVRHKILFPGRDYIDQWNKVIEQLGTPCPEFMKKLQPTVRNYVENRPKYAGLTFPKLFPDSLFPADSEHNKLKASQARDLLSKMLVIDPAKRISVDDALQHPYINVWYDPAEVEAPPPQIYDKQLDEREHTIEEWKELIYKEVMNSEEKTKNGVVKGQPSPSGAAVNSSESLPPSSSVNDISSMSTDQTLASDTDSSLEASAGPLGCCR

Turning to `COc1cccc(C(=O)NCc2cc(C(=O)O)c(S(=O)(=O)N3CCC(Nc4cccc(S(=O)(=O)C(F)(F)F)c4)CC3)s2)c1` [Example 1, 5-{[(3-methoxybenzoyl)amino]methyl}-2-[(4-{3-[(trifluoromethyl) -sulfonyl]anilino}piperidin-1-yl)sulfonyl]thiophene-3-carboxylic acid], the concentration in solution in data set [1] (solubility) was 180 µg/mL (≈ 272 µM). Besides, in data set [2], the IC50 is below 100 nM.

With `COc1cccc(C(=O)NCc2cc(C(=O)O)c(S(=O)(=O)N3CCC(NCc4ccc(C(F)(F)F)cc4)CC3)s2)c1` [Example 4, 5-{[(3-methoxybenzoyl)amino]methyl}-2-[(4-{[4-(trifluoromethyl)benzyl]amino}-1-piperidinyl)sulfonyl]-3-thiophenecarboxylic acid], the IC50 in data set [2] was below 100 nM.

With “N-({4-(hydrazinocarbonyl)-5-[(4-{3-[(trifluoro-methyl)sulfonyl]anilino}piperidin-1-yl)sulfonyl]-thien-2-yl}methyl)-3-methoxybenzamide [Example 6]”, the IC50 in data set [2] was below 100 nM.
